Test results as given in ChEMBL document CHEMBL2069206 (J Med Chem, 2012).

Legend:
[1] = molecular target: T1, Adenosine receptor A1 (Rattus norvegicus) (UniProt P25099); details: CHO, 10 uM
T1 sequence (whole entry): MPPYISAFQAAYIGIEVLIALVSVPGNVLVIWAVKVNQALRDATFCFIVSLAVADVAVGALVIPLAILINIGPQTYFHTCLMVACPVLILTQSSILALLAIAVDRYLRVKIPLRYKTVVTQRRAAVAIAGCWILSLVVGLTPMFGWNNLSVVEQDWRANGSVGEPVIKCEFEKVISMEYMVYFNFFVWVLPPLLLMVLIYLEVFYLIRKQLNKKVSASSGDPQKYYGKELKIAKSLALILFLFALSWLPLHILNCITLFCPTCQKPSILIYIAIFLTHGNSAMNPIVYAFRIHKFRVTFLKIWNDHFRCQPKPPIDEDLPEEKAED

[2] = molecular target: Adenosine receptor A2a (Rattus norvegicus) (UniProt P30543); details: HEK293, 10 uM
Adenosine receptor A2a (Rattus norvegicus), sequence (P30543 whole entry): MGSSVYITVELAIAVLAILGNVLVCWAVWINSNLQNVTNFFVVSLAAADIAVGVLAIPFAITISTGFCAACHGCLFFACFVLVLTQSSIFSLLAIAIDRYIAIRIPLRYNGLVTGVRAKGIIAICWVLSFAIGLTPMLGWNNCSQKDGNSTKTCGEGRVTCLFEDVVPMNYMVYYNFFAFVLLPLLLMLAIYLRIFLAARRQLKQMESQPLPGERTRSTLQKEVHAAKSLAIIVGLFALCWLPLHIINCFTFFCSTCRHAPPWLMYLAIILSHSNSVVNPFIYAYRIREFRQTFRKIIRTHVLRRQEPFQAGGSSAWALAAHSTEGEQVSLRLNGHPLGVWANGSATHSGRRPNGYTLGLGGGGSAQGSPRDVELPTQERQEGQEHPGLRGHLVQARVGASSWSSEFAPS

[3] = molecular target: T2, Adenosine receptor A1 (Homo sapiens) (UniProt P30542); experiment: Agonist activity at human A1 adenosine receptor expressed in CHO cells assessed as inhibition of forskolin-induced cAMP accumulation after 30 mins relative to NECA; format: functional, cell-based
T2 sequence (whole entry): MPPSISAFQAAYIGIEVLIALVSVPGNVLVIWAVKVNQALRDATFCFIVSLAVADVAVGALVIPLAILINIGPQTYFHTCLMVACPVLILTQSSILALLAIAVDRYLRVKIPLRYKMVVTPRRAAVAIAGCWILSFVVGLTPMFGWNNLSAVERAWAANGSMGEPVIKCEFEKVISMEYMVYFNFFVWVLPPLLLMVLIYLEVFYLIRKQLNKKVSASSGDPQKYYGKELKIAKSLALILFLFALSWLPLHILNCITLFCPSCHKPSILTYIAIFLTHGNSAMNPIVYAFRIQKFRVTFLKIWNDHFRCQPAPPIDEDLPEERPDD

[4] = molecular target: T3, Adenosine receptor A3 (Homo sapiens, UniProt P0DMS8); experiment: Displacement of [125I]I-AB-MECA from human A3 adenosine receptor expressed in CHO cells after 60 mins gamma counter; format: cell-based
T3 sequence (P0DMS8 whole entry): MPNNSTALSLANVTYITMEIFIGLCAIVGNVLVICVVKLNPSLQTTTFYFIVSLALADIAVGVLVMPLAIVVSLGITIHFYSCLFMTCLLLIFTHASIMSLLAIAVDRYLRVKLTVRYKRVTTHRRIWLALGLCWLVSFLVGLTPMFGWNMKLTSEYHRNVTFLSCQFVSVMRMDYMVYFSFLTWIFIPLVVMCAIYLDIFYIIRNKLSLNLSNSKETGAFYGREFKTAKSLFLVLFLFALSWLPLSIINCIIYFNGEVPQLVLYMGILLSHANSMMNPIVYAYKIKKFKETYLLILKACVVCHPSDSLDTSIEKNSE

[5] = molecular target: T4, Adenosine receptor A1 (Homo sapiens, UniProt P30542); experiment: Displacement of 3[H]R-PIA from human A1 adenosine receptor expressed in CHO cells after 60 mins by Liquid scintillation analysis; format: cell-based
T4 sequence (P30542 whole entry): T2 sequence (whole entry)

[6] = molecular target: T5, Adenosine receptor A2a (Homo sapiens, UniProt P29274); experiment: Displacement of 3[H]CGS21680 from human A2A adenosine receptor expressed in HEK293 cells after 60 mins by Liquid scintillation analysis; format: cell-based
T5 sequence (P29274 whole entry): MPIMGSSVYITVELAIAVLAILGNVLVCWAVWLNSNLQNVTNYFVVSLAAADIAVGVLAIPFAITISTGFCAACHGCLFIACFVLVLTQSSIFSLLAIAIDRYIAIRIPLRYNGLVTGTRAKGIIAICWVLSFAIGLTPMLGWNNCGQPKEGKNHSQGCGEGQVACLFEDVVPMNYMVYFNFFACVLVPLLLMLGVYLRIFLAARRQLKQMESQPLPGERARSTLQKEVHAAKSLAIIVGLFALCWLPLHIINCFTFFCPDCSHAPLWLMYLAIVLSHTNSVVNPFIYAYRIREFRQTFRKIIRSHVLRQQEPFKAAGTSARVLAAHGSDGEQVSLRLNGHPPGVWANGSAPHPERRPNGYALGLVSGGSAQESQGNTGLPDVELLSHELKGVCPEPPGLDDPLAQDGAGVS

[7] = molecular target: T5, Adenosine receptor A2a; experiment: Agonist activity at human A2A adenosine receptor expressed in CHO cells assessed as stimulation of forskolin-induced cAMP accumulation after 30 mins; format: functional, cell-based
[8] = molecular target: T5, Adenosine receptor A2a; experiment: Agonist activity at human A2A adenosine receptor expressed in CHO cells assessed as stimulation of forskolin-induced cAMP accumulation after 30 mins relative to NECA; format: functional, cell-based
[9] = molecular target: T2, Adenosine receptor A1 (Homo sapiens); experiment: Partial agonist activity at human A1 adenosine receptor expressed in CHO cells assessed as inhibition of forskolin-induced cAMP accumulation after 30 mins relative to NECA; format: functional, cell-based
[10] = molecular target: T4, Adenosine receptor A1; experiment: Partial agonist activity at human A1 adenosine receptor expressed in CHO cells assessed as inhibition of forskolin-induced cAMP accumulation after 30 mins; format: functional, cell-based

NCCNC(=O)[C@H]1O[C@@H](n2cnc3c(N)ncnc32)[C@H](O)[C@@H]1O
inhibition [1]: > 10% | inhibition [2]: > 10%

Nc1ncnc2c1ncn2[C@@H]1O[C@H](C(=O)NC2CCCC2)[C@@H](O)[C@H]1O
Efficacy [3]: 92.5% | Ki [4]: 70 nM | Ki [5]: 27 nM | Ki [6]: 650 nM | EC50 [7]: 225 nM | Efficacy [8]: 75%

Nc1ncnc2c1ncn2[C@@H]1O[C@H](C(=O)NC2CCC2)[C@@H](O)[C@H]1O
Ki [4]: 70 nM | Efficacy [9]: 65.2% | EC50 [10]: 15.1 nM | Ki [6]: 34 nM | EC50 [7]: 26.8 nM | Efficacy [8]: 99%

Nc1ncnc2c1ncn2[C@@H]1O[C@H](C(=O)NC2CC2)[C@@H](O)[C@H]1O
Efficacy [3]: 95.4% | Ki [4]: 180 nM | Ki [5]: 1.9 nM | Ki [6]: 50 nM | EC50 [7]: 22.9 nM

NCCCNC(=O)[C@H]1O[C@@H](n2cnc3c(N)ncnc32)[C@H](O)[C@@H]1O
Ki [5]: > 10000 nM

CCNC(=O)[C@H]1O[C@@H](n2cnc3c(N)ncnc32)[C@H](O)[C@@H]1O
Efficacy [3]: 100%

Nc1ncnc2c1ncn2[C@@H]1O[C@H](C(=O)NCC(F)(F)F)[C@@H](O)[C@H]1O
Ki [4]: 700 nM | Efficacy [9]: 73.4% | Ki [5]: […]
